Assay results as given in US20170150719A1, “FUNGICIDAL PYRAZOLES AND THEIR MIXTURES” (E I DU PONT DE NEMOURS AND COMPANY, priority 2010, published 2017).
Marks after values point to notes of the source that are not given here.

Legend:
[1] = system: Puccinia recondita f. sp. tritici; assay: Test H: wheat leaf rust, preventive spray on wheat seedlings, visual disease rating; conditions: for Test H rating (% disease control): preventive spray, rating without asterisk; for Test H rating (% disease control) / pest or weed control at 200 µg/mL / Test H rating (disease control): 100 = 100% disease control; for pest or weed control at 200 µg/mL: read-out: Test H rating (disease control), wheat leaf rust, sprayed the day before inoculation; for pest or weed control at 200 µg/mL / Test H rating (disease control): 0 = no disease control; for Test H rating (disease control): sprayed the day before inoculation
Alternaria solani = assay: Test B: tomato early blight, preventive spray on tomato seedlings, visual disease rating; conditions: for Test B rating (% disease control): preventive spray, rating without asterisk; for Test B rating (% disease control) / Test B rating (disease control): 100 = 100% disease control; for pest or weed control at 200 µg/mL: Alternaria solani, in Solanum lycopersicum, read-out: Test B rating (disease control); for Test B rating (disease control): 0 = no disease control relative to the controls
Septoria tritici = assay: Test F: wheat leaf blotch, preventive spray on wheat seedlings, visual disease rating; assay type: in vivo; set-up: Test F rating (disease control), value marked *: concentration or dose not given beside the values; conditions: for Test F rating (% disease control): preventive spray, rating without asterisk; for Test F rating (% disease control) / pest or weed control at 200 µg/mL / Test F rating (disease control): 100 = 100% disease control; for pest or weed control at 200 µg/mL: Zymoseptoria tritici; for pest or weed control at 200 µg/mL / Test F rating (disease control): 0 = no disease control relative to the controls
Description: (§1) A hyphen (-) indicates no test results.

Septoria nodorum = assay: Test E: Septoria glume blotch, preventive spray on wheat seedlings, visual disease rating; conditions: for Test E rating (% disease control): Septoria glume blotch on wheat, preventive spray, rating without asterisk; for Test E rating (% disease control) / pest or weed control at 200 µg/mL / Test E rating (disease control): 100 = 100% disease control; for pest or weed control at 200 µg/mL: Parastagonospora nodorum, in Triticum aestivum, read-out: Test E rating (disease control), Septoria glume blotch; for pest or weed control at 200 µg/mL / Test E rating (disease control): 0 = no disease control relative to the controls
Botrytis cinerea = assay: Test A: tomato Botrytis, preventive spray on tomato seedlings, visual disease rating; conditions: for Test A rating (% disease control): preventive spray, 0 = no control relative to controls, rating without asterisk; for Test A rating (% disease control) / pest or weed control at 200 µg/mL / Test A rating (disease control): 100 = 100% disease control; for pest or weed control at 200 µg/mL: Botrytis cinerea, in Solanum lycopersicum, read-out: Test A rating (disease control), tomato Botrytis; for pest or weed control at 200 µg/mL / Test A rating (disease control): 0 = no disease control relative to the controls
[2] = system: Blumeria graminis f. sp. tritici; assay: Test I: wheat powdery mildew, preventive spray on wheat seedlings, visual disease rating; conditions: for Test I rating (% disease control): preventive spray, rating without asterisk; for Test I rating (% disease control) / pest or weed control at 200 µg/mL / Test I rating (disease control): 100 = 100% disease control; for pest or weed control at 200 µg/mL: Blumeria graminis, in Triticum aestivum, read-out: Test I rating (disease control), wheat powdery mildew; for pest or weed control at 200 µg/mL / Test I rating (disease control): 0 = no disease control relative to the controls
[3] = system: Puccinia recondita f. sp. tritici; assay: Test G: wheat leaf rust, spray after inoculation (curative) on wheat seedlings, visual disease rating; assay type: in vivo; conditions: for Test G rating (% disease control): spray after inoculation, rating without asterisk; for Test G rating (% disease control) / pest or weed control at 200 µg/mL / Test G rating (disease control): 100 = 100% disease control; for pest or weed control at 200 µg/mL / Test G rating (disease control): 0 = no disease control
Description: as §1

Structure (SMILES) | Test H rating (disease control) ([1]; wheat leaf rust) | Test B rating (disease control) (Alternaria solani; tomato early blight) | Test F rating (disease control) (Septoria tritici) | Test E rating (disease control) (Septoria nodorum; Septoria glume blotch) | Test A rating (disease control) (Botrytis cinerea; tomato Botrytis) | Test I rating (disease control) ([2]; wheat powdery mildew) | Test G rating (disease control) ([3]; sprayed after inoculation) | also measured
COc1ccc(-c2c(C)nn(C)c2Nc2c(F)cc(F)cc2I)c(Cl)c1 [compound 219] |  |  |  |  |  |  |  | Test H rating (% disease control) ([1]; wheat leaf rust): 100%; Test B rating (% disease control) (Alternaria solani; tomato early blight): 100%; Test F rating (% disease control) (Septoria tritici): 100%; Test E rating (% disease control) (Septoria nodorum): 100%; Test A rating (% disease control) (Botrytis cinerea; tomato Botrytis): 100%; Test I rating (% disease control) ([2]; wheat powdery mildew): 99%; Test G rating (% disease control) [3]: 99%
Cc1nn(C)c(Oc2ccc(C#N)cc2Cl)c1-c1ccc(F)cc1Cl [Compound 37, 3-chloro-4-[[4-(2-chloro-4-fluorophenyl)-1,3-dimethyl-1H-pyrazol-5-yl]oxy]benzonitrile] |  |  |  |  |  |  |  | pest or weed control at 200 µg/mL [1]: 99%; pest or weed control at 200 µg/mL (Alternaria solani): 86%; pest or weed control at 200 µg/mL (Septoria tritici): 100%; pest or weed control at 200 µg/mL (Septoria nodorum): 100%; pest or weed control at 200 µg/mL (Botrytis cinerea): 100%; pest or weed control at 200 µg/mL [2]: 100%; pest or weed control at 200 µg/mL ([3]; sprayed after inoculation): 69%
Cc1nn(C)c(Oc2ccc(C#N)cc2F)c1-c1c(F)cc(F)cc1F [compound 27] | 99% | 99% | 100% | 99% | 99% | 100% | 9% | 
COc1cc(F)c(Nc2c(-c3c(F)cccc3Cl)c(C)nn2C)c(F)c1 [compound 55] | 100% | 99% | 100% | 80% | 99% | 99% | 94% | 
Cc1nn(C)c(Oc2c(F)cc(C#N)cc2F)c1-c1c(F)cc(F)cc1F [Compound 8, 4-[[1,3-dimethyl-4-(2,4,6-trifluorophenyl)-1H-pyrazol-5-yl]oxy]-3,5-difluorobenzonitrile] |  |  |  |  |  |  |  | Test H rating (disease control), value marked * ([1]; wheat leaf rust, preventive, rating marked with asterisk (*), not explained in the text shown): 79* %; Test B rating (disease control), value marked * (Alternaria solani; tomato early blight, rating marked with asterisk (*), other test condition, not explained in the text shown): 98* %; Test F rating (disease control), value marked * (Septoria tritici; rating marked with asterisk (*), other test condition, not explained in the text shown): 47* %; Test E rating (disease control), value marked * (Septoria nodorum; Septoria glume blotch, rating marked with asterisk (*), other test condition, not explained in the text shown): 0* %; Test A rating (disease control), value marked * (Botrytis cinerea; tomato Botrytis, rating marked with asterisk (*), other test condition, not explained in the text shown): 99* %; Test I rating (disease control), value marked * ([2]; wheat powdery mildew, rating marked with asterisk (*), not explained in the text shown): 60* %; Test G rating (disease control), value marked * ([3]; sprayed after inoculation, rating marked with asterisk (*), not explained in the text shown): 15* %
COc1ccc(Nc2c(-c3ccc(F)cc3F)c(C)nn2C)c(Cl)c1 [compound 66] | 91% | 37% | 100% | 0% | 99% | 100% | 0% | 
Cc1nn(C)c(Nc2c(F)cc(C#N)cc2F)c1-c1c(F)cccc1F [compound 90] | 98% | 87% | 100% | 87% | 99% | 99% | 0% | 
Cc1nn(C)c(Nc2ccc(F)cc2F)c1-c1ccc(F)cc1F [compound 64] | 97% | 99% | 100% | 0% | 99% | 100% | 0% | 
Cc1nn(C)c(Nc2ccc(F)cc2Cl)c1-c1c(Cl)cccc1Cl [compound 109] | 97% | 0% | 100% | 0% | 100% | 100% | 0% | 
Cc1nn(C)c(Nc2c(F)cc(C#N)cc2F)c1-c1ccc(F)cc1F [compound 83] | 100% | 99% | 100% | 87% | 100% | 100% | 0% | 
Cc1nn(C)c(Nc2ccc(F)cc2Cl)c1-c1ccc(F)cc1F [compound 61] | 99% | 93% | 100% | 64% | 100% | 100% | 0% | 
COc1ccc(Nc2c(-c3ccc(F)cc3F)c(C)nn2C)c(F)c1 [compound 63] | 80% | 99% | 99% | 0% | 99% | 99% | 0% | 
CCOc1ccc(-c2c(C)nn(C)c2Nc2c(F)cc(F)cc2Cl)c(Cl)c1 [compound 206] |  |  |  |  |  |  |  | Test H rating (% disease control) ([1]; wheat leaf rust): 99%; Test B rating (% disease control) (Alternaria solani; tomato early blight): 100%; Test F rating (% disease control) (Septoria tritici): 100%; Test E rating (% disease control) (Septoria nodorum): 99%; Test A rating (% disease control) (Botrytis cinerea; tomato Botrytis): 99%; Test I rating (% disease control) ([2]; wheat powdery mildew): 100%; Test G rating (% disease control) [3]: 0%
CCOc1ccc(-c2c(C)nn(C)c2Nc2c(F)cc(Cl)cc2Cl)c(Cl)c1 [compound 202] |  |  |  |  |  |  |  | Test H rating (% disease control) ([1]; wheat leaf rust): 92%; Test B rating (% disease control) (Alternaria solani; tomato early blight): 77%; Test F rating (% disease control) (Septoria tritici): 100%; Test E rating (% disease control) (Septoria nodorum): 0%; Test A rating (% disease control) (Botrytis cinerea; tomato Botrytis): 99%; Test I rating (% disease control) ([2]; wheat powdery mildew): 95%; Test G rating (% disease control) [3]: 35%
Cc1nn(C)c(Nc2c(Cl)cc(Cl)cc2Cl)c1-c1ccc(F)cc1Cl [compound 170] | 98% | 0% | 100% | 0% | 65% | 79% | 79% | 
COc1cc(F)c(-c2c(C)nn(C)c2Nc2ccc(F)cc2Cl)c(F)c1 [Compound 23, N-(2-chloro-4-fluorophenyl)-4-(2,6-difluoro-4-methoxyphenyl)-1,3-dimethyl-1H-pyrazol-5-amine] |  |  |  |  |  |  |  | pest or weed control at 200 µg/mL [1]: 99%; pest or weed control at 200 µg/mL (Alternaria solani): 100%; pest or weed control at 200 µg/mL (Septoria tritici): 98%; pest or weed control at 200 µg/mL (Septoria nodorum): 95%; pest or weed control at 200 µg/mL (Botrytis cinerea): 100%; pest or weed control at 200 µg/mL [2]: 100%; pest or weed control at 200 µg/mL ([3]; sprayed after inoculation): 85%
CCOc1cc(F)c(-c2c(C)nn(C)c2Nc2ccc(F)cc2F)c(F)c1 [compound 39] | 99% | 99% | 100% | 98% | 99% | 100% | 0% | 
Cc1nn(C)c(Oc2ccc(C#N)cc2Cl)c1-c1c(F)cccc1F [Compound 127, 3-chloro-4-[[4-(2,6-difluorophenyl)-1,3-dimethyl-1H-pyrazol-5-yl]oxy]benzonitrile] |  |  |  |  |  |  |  | pest or weed control at 200 µg/mL [1]: 97%; pest or weed control at 200 µg/mL (Alternaria solani): 0%; pest or weed control at 200 µg/mL (Septoria tritici): 100%; pest or weed control at 200 µg/mL (Septoria nodorum): 0%; pest or weed control at 200 µg/mL (Botrytis cinerea): 99%; pest or weed control at 200 µg/mL [2]: 97%; pest or weed control at 200 µg/mL ([3]; sprayed after inoculation): 0%
